Results from patent publication US20010007907A1, “3-EPI COMPOUNDS OF VITAMIN D3 AND USES THEREOF” (WOMEN AND INFANTS HOSPITAL, priority 1997, published 2001).
Like-named read-outs stand apart in the source and are kept apart here. Values belong to the compound of their own block, whether it stands above or below them.

Key:
human keratinocytes = test: Metabolism in human keratinocytes (incubation, lipid extraction, HPLC); assay type: in vitro ADME
Method: Keratinocytes were prepared as described previously (Kim H. […] First passage keratinocytes were seeded at 0.5×10^6 into […] flasks in keratinocytes growth media (KGM, Clonetics, Inc.). The cells were fed every 2-3 days. The cells were 70-80% confluent usually after 5 days. […] At the end of 24 hr incubation period in a 37° C., 5% CO2 incubator, an equal volume of methanol was added to the cultures. The cells were then scraped from the flasks and all of the media and the cells were pooled and lipid extraction was performed from both cells and media using the Bligh and Dyer technique. […] Zorbax-SIL column eluted with 6% isopropanol in hexane at a flow rate of 2 ml/min. […] Resulting lipid extracts were analyzed using the following HPLC conditions: Zorbax-SIL column eluted with 9% isopropanol in hexane at a flow rate of 2 ml/min. […] Lipid extracts of different time points were analyzed by straight phase HPLC. […] This metabolite peak appeared at 1 hr. incubation period and increased to its maximum by 3 hr.

human leukemic cells = test: Proliferation and differentiation of human leukemic cells; assay type: cell-based; conditions: data not shown
keratinocytes [1] = test: Keratinocyte growth inhibition (cell number per well); assay type: cell-based, human; conditions: for potency at inhibiting growth of keratinocytes compared with 1α,25(OH)2-3-epi-D3: data not shown; for inhibition of keratinocyte growth: result in words
Method: To address the effect of 3-epi vitamin D3 compounds on keratinocyte growth, keratinocyte cultures were established at 25.000 cells/per well on day 0 in KGM. […] The cells were allowed to grow for 4 more days with one refeeding on day 3. Number of cells per well was determined on day 4.

Caco-2 cells = test: Metabolism of synthetic analogs in Caco-2 cells (HPLC); assay type: in vitro ADME, human; conditions: for metabolites detected in subconfluent cells: Caco-2, 6 days after seeding; for metabolites detected in subconfluent cells / metabolites detected in confluent cells: 1 μM, 48 hours; for metabolites detected in confluent cells: Caco-2, 14 days after seeding
Method: To address whether the epimerization of vitamin D3 analogs occurs in other tissues, the intestinal cell line Caco-2 was used as a model system to investigate the metabolism of two synthetic analogs of 1,25(OH)2D3 in intestinal epithelial cells. Subconfluent (6 days after seeding) and confluent (14 days after seeding) cells were incubated with 1 μM 1,25(OH)2-16-ene-D3 or 1,25(OH)2-16-ene-23-yne-D3, respectively, for 48 hours.

keratinocytes [2] = conditions: J. Invest. Dermatol. 101:713-718, 1993; cited from earlier work
[3] = tested on: rat osteosarcoma cell line UMR 106
Method: (§1) In order to address whether vitamin D3 analogs can be converted to 3-epi forms, a number of analogs were tested in bone cells under identical experimental conditions as described in Example IX.

MG-63 = conditions: relative to 1α,25(OH)2D3 = 100; cited from earlier work
[4] = tested on: bone calcium mobilization; conditions: relative to 1α,25(OH)2D3 = 100; cited from earlier work
[5] = tested on: human osteosarcoma cell (U-2 OS); test: Metabolism of 1α,25(OH)2D3 in human osteosarcoma cell (U-2 OS); assay type: in vitro ADME; conditions: 3×10^7 and 12×10^7 cells
Method: HPLC profiles were determined at two different cell densities, 3×10^7 cells and 12×10^7 as shown in the upper and lower panels of the Figure, respectively.

[6] = tested on: intestinal calcium transport; conditions: relative to 1α,25(OH)2D3 = 100; cited from earlier work
[7] = tested on: rat osteosarcoma cell line UMR 106; test: Metabolism in rat osteosarcoma cell line UMR 106 (HPLC); conditions: UMR 106, 1α,25(OH)2D3, 24 and 48 hours
Method: as §1

human placental explants = conditions: 1 uM 1α,25(OH)2D3
HACAT cells = test: Metabolism of 1α,25(OH)2D3 in immortalized human keratinocytes (HACAT); assay type: in vitro ADME; conditions: 24 hr, 1uM 1α,25(OH)2D3
Excerpt: Primary cultures of human keratinocytes were used as a control (FIG. 12, panel A). The other three tissues tested included a cell line of immortalized human keratinocytes ([…] commonly studied cancer cell line (human promyelocytic leukemic cell line, HL-60) (FIG. 12, panel C), and perfused rat kidney (FIG. 12, Panel D). […] The experiments certainly establish the fact that the 3-epimerization is not ubiquitous, like the side chain oxidation pathways.

bovine parathyroid cells [8] = test: Metabolism in bovine parathyroid cells (HPLC); assay type: in vitro ADME; conditions: 1 uM, 24 hours
Method: Bovine parathyroid glands obtained from a local slaughterhouse were digested with collagenase and the cells were cultured as previously described (Brown A. J. et al. (1992) Endocrinology 130:276-281), and seeded at a density of 80,000 cells/cm^2. Cells were grown to confluence in six days in serum free medium. […]. Incubations were terminated with methanol, and the samples were sent to our laboratory for HPLC analysis. The lipid extract was analyzed using the straight phase HPLC system (Zorbax-SIL column eluted with 6% isopropanol inhexane at 2 ml/min flow rate). […]

[9] = tested on: intestinal calcium mobilization; conditions: cited from earlier work
bovine parathyroid cells [10] = test: Inhibition of PTH secretion in bovine parathyroid cells; assay type: cell-based; conditions: result in words
Method: To determine the effect of 3-epi vitamin D3 compounds on parathyroid hormone secretion, bovine parathyroid cells were prepared as described in the metabolism studies. These cells were grown for four days in serum-free media. […] Steady state PTH seretion was determined by washing the cells 3 times with Dulbecco's PBS and then placing them in serum free media for 3 hours. The media was collected, centrifuged at 4° C. and analyzed from PTH using CH9 antibody as described previously (Brown A. J. et al. (1992) Endocrinology 130:276-281). The cell monolayers were dissolved in 0.1 N NaOH and assayed for protein by method of Bradford using a kit from Biorad Laboratories. PTH secretion is expressed as picograms PTH per milligram cell protein (FIG. 20, panel B).

[11] = biological target: T1, plasma vitamin D binding protein (DBP) (Homo sapiens, UniProt P02774); test: Competitive ligand binding to plasma vitamin D binding protein (RCI); conditions: fold over 1α,25(OH)2D3
T1 sequence (P02774 17-474): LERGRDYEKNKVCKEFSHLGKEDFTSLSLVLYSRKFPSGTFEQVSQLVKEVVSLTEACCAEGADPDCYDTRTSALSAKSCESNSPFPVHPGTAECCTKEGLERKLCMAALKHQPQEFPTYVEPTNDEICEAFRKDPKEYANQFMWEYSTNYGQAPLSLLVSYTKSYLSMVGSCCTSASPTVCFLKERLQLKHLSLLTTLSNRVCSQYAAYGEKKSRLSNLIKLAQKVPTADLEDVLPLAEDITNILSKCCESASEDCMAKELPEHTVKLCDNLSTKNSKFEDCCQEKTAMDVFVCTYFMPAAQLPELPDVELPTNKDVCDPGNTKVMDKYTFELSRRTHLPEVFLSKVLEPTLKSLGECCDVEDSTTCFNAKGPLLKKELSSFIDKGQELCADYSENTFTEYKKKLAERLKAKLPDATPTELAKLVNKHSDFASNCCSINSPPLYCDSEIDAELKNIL
Excerpt: The elevated levels of 3-epi binding indicate that 3-epi forms bind to DBP more avidly than their isomeric counterparts. Such enhanced binding may in turn enhance the stability of 3-epi forms in the plasma, and thus may explain the prolonged presence of 3-epi metabolites in vivo.
Ligand binding assays are well known in the art. […] Such plots give linear curves characteristic for each test analog, the slopes of which are equal to the analog's competitive index (Wecksler, W. R. and Norman, A. W. (1980) Methods of Enzymol. 67:494-500).

[12] = biological target: T1, plasma vitamin D binding protein (DBP); conditions: relative competitive index; RCI of 1α,25(OH)2D3 is by definition 100; cited from earlier work
[13] = biological target: T2, vitamin D3 nuclear receptors (VD3R) (Rattus norvegicus, UniProt P13053); test: Osteocalcin VDRE reporter gene transcription assay in transfected ROS-17/2.8 cells
T2 sequence (P13053 1-423): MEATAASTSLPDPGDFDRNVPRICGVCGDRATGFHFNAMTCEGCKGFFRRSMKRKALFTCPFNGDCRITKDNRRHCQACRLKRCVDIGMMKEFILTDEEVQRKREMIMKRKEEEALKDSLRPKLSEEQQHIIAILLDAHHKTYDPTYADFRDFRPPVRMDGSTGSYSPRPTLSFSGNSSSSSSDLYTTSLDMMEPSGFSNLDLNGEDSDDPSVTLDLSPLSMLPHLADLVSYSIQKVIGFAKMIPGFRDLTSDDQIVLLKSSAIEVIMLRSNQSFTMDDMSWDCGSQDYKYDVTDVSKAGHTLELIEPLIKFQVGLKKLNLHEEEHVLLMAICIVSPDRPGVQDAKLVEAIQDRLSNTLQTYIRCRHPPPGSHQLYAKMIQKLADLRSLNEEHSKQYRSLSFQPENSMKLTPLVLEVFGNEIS

metabolites detected in confluent cells (Caco-2 cells): 3-epi form of 1,25(OH)2-16-ene-D3
Compound: C=C1/C(=C\C=C2/CCC[C@]3(C)C([C@H](C)CCCC(C)(C)O)=CCC23)C[C@@H](O)C[C@@H]1O (stereo partly drawn) [1α,25(OH)2-16-ene-D3]
metabolites detected in subconfluent cells (Caco-2 cells): 1,24,25(OH)3-16-ene-D3 and 1,25 (OH)2-24-oxo-16-ene-D3
inhibiting proliferation and inducing differentiation of keratinocytes (keratinocytes [2]): most potent of the analogs tested
potency at inhibiting growth of keratinocytes compared with 1α,25(OH)2-3-epi-D3 (keratinocytes [1]): more potent than 1α,25(OH)2-3-epi-D3
inhibition of keratinocyte growth (keratinocytes [1]): equally potent

formation of 1α,25(OH)2-3-epi-D3 [7]: dose dependent
incubation time at which the tritiated metabolite reaches its maximum (human keratinocytes; human keratinocytes from adult breast skin incubated with tritiated 25(OH)D3, physiological substrate concentration): 1 to 2 h
epimerization of the 3-hydroxy group (human placental explants): unable to epimerize
conversion into 1α,25(OH)2-3-epi-D3 (bovine parathyroid cells [8]): have the ability to convert
Compound: C=C1/C(=C\C=C2/CCC[C@@]3(C)C2CCC3C(C)CCCC(C)(C)O)CC(O)C[C@@H]1O (stereo partly drawn) [1α,25(OH)2D3]
Osteocalcin Synthesis MG-63 (MG-63): 100
Bone Calcium Mobilization [4]: 100
conversion into 3-epi form [5]: directly proportional to the concentration of cells
Intestinal Calcium Transport [6]: 100
formation of 1α,25(OH)2-3-epi-D3 (peak M) (human keratinocytes; primary human keratinocytes, 24 hr, 1uM 1α,25(OH)2D3): is formed in keratinocytes and the HACAT cells
formation of 1α,25(OH)2-3-epi-D3 (peak M) (HACAT cells): is formed in keratinocytes and the HACAT cells
Transcaltachia ([9]; relative to 1α,25(OH)2D3 = 100): 100

conversion of vitamin D3 analog into less polar 3-epi metabolite [3]: 3-epi form
Compound: C=C1C(=CC=C2CCCC3(C)C2CCC3C(C)CCCC(C)(C)O)CC(O)CC1O (stereo not drawn) [1α,25(OH)2-20-epi-D3]

metabolites detected in subconfluent cells (Caco-2 cells): no metabolites could be detected
metabolites detected in confluent cells (Caco-2 cells): 3-epi forms
rate of metabolism compared with 1,25(OH)2D3 or 1,25(OH)2-16-ene-D3 (Caco-2 cells; Caco-2, all growth conditions, data not shown): metabolized considerably slower
conversion of vitamin D3 analog into less polar 3-epi metabolite [3]: 3-epi forms
Compound: C=C1/C(=C\C=C2/CCC[C@]3(C)C([C@H](C)CC#CC(C)(C)O)=CC[C@@H]23)C[C@@H](O)C[C@@H]1O [1α,25(OH)2-16-ene-23-yne-D3]

The remaining lines, values behind:

Compound: C=C1/C(=C\C=C2/CCC[C@]3(C)C([C@H](C)CCC(=O)C(C)(C)O)=CC[C@@H]23)C[C@@H](O)C[C@@H]1O [1α,25(OH)2-16-ene-24-oxo-D3]
accumulation of metabolite relative to remaining unmetabolized substrate (human keratinocytes; human): exceeded the amounts of remaining unmetabolized substrate
modulating proliferating and differentiation of human leukemic cells, compared with parent compound (human leukemic cells): equipotent effect as its parent compound
potency at inhibiting growth of keratinocytes compared with 1α,25(OH)2-3-epi-D3 (keratinocytes [1]): more potent than 1α,25(OH)2-3-epi-D3
inhibition of keratinocyte growth (keratinocytes [1]): equally potent

Compound: C=C1/C(=C\C=C2/CCC[C@]3(C)C([C@@H](C)CCCC(C)(C)O)=CCC23)C[C@@H](O)C[C@@H]1O (stereo partly drawn) [1α,25(OH)2-16-ene-20-epi-D3]
conversion of vitamin D3 analog into less polar 3-epi metabolite [3]: 3-epi form

Compound: C=C1C(=CC=C2CCCC3(C)C2CCC3C(C)CCCC(C)(C)O)CC(O)CC1O (stereo not drawn) [1α,25(OH)2-3-epi-D3, 3-epi-1α,25-dihydroxycholecalciferol]
Osteocalcin Synthesis MG-63 (MG-63): 17
Bone Calcium Mobilization [4]: 1.5
Intestinal Calcium Transport [6]: 2.8
inhibition of PTH secretion (bovine parathyroid cells [10]): significant biological activity
increase in the binding to plasma vitamin D binding protein (DBP) compared to 1α,25(OH)2D3 [11]: eightfold
incubation time at which the tritiated metabolite reaches its maximum (human keratinocytes): 3 h
metabolism into more polar metabolites (human keratinocytes): extensive metabolism
inhibition of keratinocyte growth (keratinocytes [1]): significant biological activity
Transcaltachia ([9]; relative to 1α,25(OH)2D3): 80%
Transcaltachia ([9]; relative to 1α,25(OH)2D3 = 100): 80
Binding to DBP (RCI) [12]: 800

Compound: C=C1C(=CC=C2CCCC3(C)C(C(C)CC#CC(C)(C)O)=CCC23)CC(O)CC1O (stereo not drawn) [3-epi-1,25-dihydroxy-16-ene-25-yne-cholecalciferol]
transcriptional activation in relation to isomeric counterpart [13]: slightly decreased
transcriptional activity compared with 1α,25(OH)2D3 [13]: as active as 1α,25(OH)2D3
induction of VD3R transcriptional activity ([13]; osteocalcin VDRE reporter): dose dependent manner
